# Columns and labels:
# [1] = tested on: H. pylori; experiment: Growth inhibition of H. pylori (MIC), growth monitored by spectrophotometer; type: cell-based; conditions: for minimal inhibitory concentration (MIC): Example 4, FIG. 4
# Method: (§1) To test the effect of artemisinin on the growth of H. pylori, freshly prepared bacteria were exposed to various concentrations of artemisinin. Bacteria were grown for fixed incubation times and their growth levels were monitored using a spectrophotometer. The growth of treated bacteria was compared to that of non-treated bacteria.
# as §1, with “effectivity” for “effect”, “artemisinin derivatives” for “artemisinin”, “artemisinin derivatives.” for “artemisinin.”
# [2] = tested on: ulcerative lesion index; conditions: lesions produced by ethanol and indomethacin in rats; cited from earlier work
# [3] = tested on: H. pylori; experiment: Anti-Helicobacter activity of artesunate after pre-incubation in simulated gastric fluid; type: cell-based; conditions: 1 mg/ml pre-incubated in SGF pH 1.2 at 37° C. up to 24 h, cultures then exposed 36 h, FIG. 6
# Method: Artesunate (1 mg/ml) was pre-incubated in simulated gastric fluid (SGF, pH 1.2) or in bacterial broth medium (BBM, natural pH) at 37° C. for various time periods (1, 2, 4, 6, and 24 hours). After the pre-incubation, bacterial cultures (0.01 O.D) were exposed for 36 h to culture medium containing the pre-incubated artesunate. The effect of artesunate on bacterial growth was then determined by spectrophotometer.
# [4] = tested on: H. pylori bacterial strain SS1; experiment: H. pylori-infected mice, colony forming units from homogenized stomach; type: in vivo; conditions: oral 50 mg/kg 3 times/day for 8 days, day 4 and 8, versus placebo, FIG. 7
# Method: The effect of artesunate against H. pylori infection in vivo was tested in H. pylori-infected mice. Mice were infected by inoculation (×3/day) with suspension of 10^9 H. pylori bacterial strain SS1. Two weeks following the infection, mice were treated orally with 50 mg/kg artesunate 3 times/day for 8 days. The level of bacterial infection was determined by counting the number of colony forming units derived from the homogenized stomach on day 4 and 8 of the treatment.
# [5] = tested on: H. pylori; experiment: Timed artesunate exposure and wash-out, regrowth of H. pylori cultures; type: cell-based; conditions: 0.625 or 6.25 mM, exposure 0.5-18 hours, then 36 hours artesunate-free medium, FIG. 5
# Method: Artesunate (0.625 or 6.25 mM) was added to bacterial cultures (0.2 O.D.600) for various time points (0.5, 1, 2, 4, 6, and 18 hours). Artesunate was then washed out from the cultures by precipitation of the bacteria and washing in PBS, after which bacteria were re-suspended in a fresh artesunate-free medium. Bacteria were maintained in artesunate-free medium for additional 36 hours and bacterial growth was then determined by spectrophotometer.
# [6] = tested on: H. pylori; experiment: Minimal bactericidal concentration: treated H. pylori plated on solid medium, colonies counted; type: cell-based; conditions: no colony-forming units on solid medium
# Method: To further determine the antibacterial effect of artemisinin, H. pylori maintained in the presence of various concentrations of artemisinin were plated on solid medium and the number of single colonies was monitored.
# [7] = tested on: Lactobacillus acidophilus; experiment: MIC / growth of Lactobacillus acidophilus; type: cell-based
# Method: (§2) The effect of artemisinin on the growth and viability of Lactobacillus acidophilus (L. acidophilus) that is part of the normal flora of the intestine was examined. L. acidophilus bacteria were grown with various concentration of artemisinin and its effect was determined.
# [8] = tested on: H. pylori exhibiting resistance to clarithromycin (CLR) and metronoidazole; experiment: Growth of clarithromycin- and metronidazole-resistant H. pylori strains; type: cell-based; conditions: 2.5-10 μM artemisinin, 3 days, micro-aerophilic conditions, FIG. 2
# Method: Unsuccessful therapy in patients infected with H. pylori is frequently correlated to clarithromycin and metronidazole resistance. […] Bacterial cultures were incubated in micro-aerophilic conditions. The effect of clarithromycin or artemisinin on bacterial growth was tested using a spectrophotometer after 3 days.
# [9] = tested on: cancer cells; conditions: cited from earlier work
# [10] = tested on: P. acnes; experiment: MBC against P. acnes; type: cell-based
# Method: (§3) To determine whether the effect of artemisinin is specific to H. pylori, the ability of artemisinin to inhibit the growth of E. coli and P. acnes was tested. In contrary to H. pylori, which is a microaerophilic bacterium, E. coli is an aerobic intestinal bacterium, and P. acnes is an anaerobic dermal bacterium. These bacteria were exposed to various concentrations of artemisinin, and MIC and MBC values were determined.
# [11] = tested on: Lactobacillus acidophilus; experiment: MBC against Lactobacillus acidophilus; type: cell-based; conditions: L. acidophilus
# Method: as §2
# [12] = tested on: anaerobic bacteria; conditions: cited from earlier work
# [13] = tested on: E. coli; experiment: MBC against E. coli; type: cell-based
# Method: as §3
# [14] = tested on: H. pylori; experiment: Combined effect of artemisinin and omeprazole on H. pylori growth; type: cell-based; conditions: 0.5 μg/ml artemisinin alone, 3 days
# Method: In order to explore the possible synergism between artemisinin and a PPI, the growth of bacteria in the presence of artemisinin, omeprazole or both was examined. H. pylori bacteria were grown in the presence of 3-24 μg/ml omeprazole or 0.5-4 μg/ml of artemisinin. Bacterial cultures were incubated in micro-aerophilic conditions. The combined effect of artemisinin and omeprazole on bacterial growth was tested using a spectrophotometer after 3 days.
# [15] = tested on: wild type of E. coli having intact DNA gyrase genes; conditions: cited from earlier work
# [16] = tested on: E. coli strains defective in DNA-gyrase enzyme; conditions: cited from earlier work
compound,measurement,setting,value
CO[C@H]1O[C@@H]2O[C@@]3(C)CC[C@H]4[C@H](C)CC[C@@H]([C@H]1C)[C@@]24OO3 [artemether],minimal inhibitory concentration (MIC),[1],0.3 to 0.6 µM
dihydro-epideoxyarteannuin B,Gastric cytoprotection (ulcerative lesion index),[2],provided gastric cytoprotection
C[C@@H]1CC[C@H]2[C@@H](C)C(=O)O[C@@H]3O[C@@]4(C)CC[C@@H]1[C@]32O4 [deoxyartemisinin],Gastric cytoprotection (ulcerative lesion index),[2],provided gastric cytoprotection
C[C@H]1[C@H](OC(=O)CCC(=O)O)O[C@@H]2O[C@@]3(C)CC[C@H]4[C@H](C)CC[C@@H]1[C@@]24OO3 [artesunate],Anti-Helicobacter activity after pre-incubation in low pH,[3],preserved
same,Number of colony forming units from homogenized stomach,[4],efficiently reduced the number of colony forming units
same,Bacterial growth after wash-out of artesunate,[5],irreversible bacterial eradication
CCO[C@H]1O[C@@H]2O[C@@]3(C)CC[C@H]4[C@H](C)CC[C@@H]([C@H]1C)[C@@]24OO3 [arteether],minimal inhibitory concentration (MIC),[1],0.15 to 0.3 µM
C[C@@H]1CC[C@H]2[C@@H](C)C(=O)O[C@@H]3O[C@@]4(C)CC[C@@H]1[C@]32OO4 [artemisinin],MBC (minimal bactericidal concentration),[6],125 to 250 µM
same,MIC (minimal inhibitory concentration),"[1]; Example 1, Table 1",2.5 µM
same,MIC (minimal inhibitory concentration),[7]; L. acidophilus,>5 mM
same,Effect on growth of L. acidophilus,[7]; any used concentration below 5 mg/ml,did not affect the growth
same,Sensitivity of clarithromycin- and metronidazole-resistant H. pylori strains,[8],significant sensitivity
same,Concentration range toxic to cancer cells in vitro,[9],20 to 180 µM
same,MBC (minimal bactericidal concentration),[10],>5 mM
same,MBC (minimal bactericidal concentration),[11],>5 mM
same,Anti-microbial activity,[12],possesses an anti-microbial activity
same,MBC (minimal bactericidal concentration),[13],>5 mM
same,"Bacterial growth, artemisinin alone",[14],not effective alone
CCO[C@@H]1O[C@@H]2O[C@]3(C)CC[C@H]4[C@H](C)CC[C@@H]([C@H]1C)[C@@]24OO3 [α-arteether],Sensitivity,[15],not sensitive
same,Growth inhibition,[16],inhibits the growth
